These results are taken from patent publication US20060204957A1, “Mta1s, a steriod hormone receptor corepressor” (priority 2002, published 2006).

In one assay the test system is ER. Put plainly: Confocal localization of ER in ZR-75R clones after estradiol. The format is cell-based, human. On the procedure:
FIGS. 3A-3H. MTA1s typically localizes in the cytoplasm and interacts with ER. FIG. 3A illustrates an example of confocal microscopy of MCF-7 cells transiently transfected with T7-tagged MTA1 or MTA1s constructs. FIG. 3B illustrates exemplary expression of T7-MTA1s in ZR75 clones. FIG. 3C illustrates exemplary nuclear and cytoplasmic fractions that were assessed by immunoblotting with the indicated antibodies. […] FIG. 3F illustrates exemplary GST pull-down assays. […] FIG. 3H illustrates an example of expression of MTA1s and ERα in indicated cells by confocal microscopy.
The cellular localization of T7-MTA1s, and ER was determined using indirect immunofluorescence as described in Mazumdar et al., 2001, herein incorporated by reference. Cells were treated with or without anti-T7 mAb or ER Ab followed by 546-Alexa-labeled goat anti-mouse Ab or 488-Alexa.

The next assay concerns ZR-75R cells. Put plainly: Growth of ZR-75R cells in monolayer culture. The format is cell-based, human. The text has this: FIGS. 11A-11E. MTA1s may stimulate aggressive phenotypes in breast cancer cells. FIG. 11A illustrates an example of MTA1s overexpression inhibiting PRE-driven but not RARE-driven transcription. FIG. […] illustrates the Growth-rate of ZR/pcDNA or ZR/MTA1s cells in monolayer culture in the presence of E2 alone or with ICI 182780 (10^−9 M for 4 days). FIG. 11C show an exemplary effect of MTA1s expression on anchorage independent growth of ZR/pcDNA and ZR/MTA1s cells grown in 10% serum in the presence or absence of ICI 182780 (10^−9 M) or 4HT (10^−8 M) for 14 days. […] FIG. 11E illustrates that MTA1s may induce tumorigenesis of breast cancer cells. 5×10^6 cells were subcutaneously inoculated in the athymic nude mice (n=10), and tumor volumes at day 21 were recorded.

In assay [1] the test system is PRE-mediated transcription. Put plainly: PRE-mediated transcription in ZR-75R cells. The following applies: MTA1s-overexpressing ZR-75R cells. The format is cell-based, human. The method, then:
Transfection was performed using a Fugene-6 kit (Roche Biochemical, New Jersey) as per the manufacturer's instructions. Cells were transiently cotransfected with a reporter construct and (β-galactosidase, and assayed for luciferase activity as described.

The next assay addresses T1, ERα (Homo sapiens, UniProt P03372).
T1 sequence (P03372 1-536): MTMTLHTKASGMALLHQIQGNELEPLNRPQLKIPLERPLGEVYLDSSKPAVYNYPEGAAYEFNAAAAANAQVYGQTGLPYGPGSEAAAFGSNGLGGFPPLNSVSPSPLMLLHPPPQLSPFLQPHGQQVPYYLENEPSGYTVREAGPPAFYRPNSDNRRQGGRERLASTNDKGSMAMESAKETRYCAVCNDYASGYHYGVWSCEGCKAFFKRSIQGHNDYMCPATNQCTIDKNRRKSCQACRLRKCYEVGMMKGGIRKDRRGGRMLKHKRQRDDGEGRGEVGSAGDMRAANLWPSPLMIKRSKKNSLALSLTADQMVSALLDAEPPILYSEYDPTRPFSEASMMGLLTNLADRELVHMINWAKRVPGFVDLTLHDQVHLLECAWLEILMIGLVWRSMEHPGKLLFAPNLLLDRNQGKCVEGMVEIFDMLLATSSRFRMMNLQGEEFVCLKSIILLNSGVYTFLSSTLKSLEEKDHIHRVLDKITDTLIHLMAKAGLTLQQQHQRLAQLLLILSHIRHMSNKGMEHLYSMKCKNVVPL
T1 sequence (Q13330 1-429 isoform Q13330-2 partner limits assumed): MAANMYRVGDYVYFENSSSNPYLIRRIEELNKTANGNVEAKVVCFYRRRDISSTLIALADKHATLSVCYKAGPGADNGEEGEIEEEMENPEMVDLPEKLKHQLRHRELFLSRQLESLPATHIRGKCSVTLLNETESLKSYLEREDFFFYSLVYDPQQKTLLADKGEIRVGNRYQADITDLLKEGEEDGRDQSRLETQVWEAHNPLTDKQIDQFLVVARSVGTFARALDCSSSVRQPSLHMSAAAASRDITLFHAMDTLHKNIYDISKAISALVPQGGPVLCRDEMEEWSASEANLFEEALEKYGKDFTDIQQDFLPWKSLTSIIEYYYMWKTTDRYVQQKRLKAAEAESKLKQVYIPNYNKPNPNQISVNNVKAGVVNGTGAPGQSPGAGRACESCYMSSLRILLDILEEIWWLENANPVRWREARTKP
The settings on record: yeast AH109 two-hybrid.

The structures appear in SMILES notation.

Turning to `C[C@]12CC[C@@H]3c4ccc(O)cc4CC[C@H]3[C@@H]1CC[C@@H]2O` [estradiol, 17β-estradiol], in the assay on ER (ZR-75R/vector cells), the “redistribution of ER to the nucleus” value is given as “rapidly redistributed the ER to the nucleus”. The “cells in which ER was not redistributed to the nucleus” value with ER (estradiol-activated ZR-75R/MTA1s cells) is listed as “over 90%”. The cell growth response entry in the assay with ZR-75R cells (ZR-75R cells expressing MTA1s) is “did not respond”. The cell growth entry in the assay with ZR-75R cells (ZR-75R cells expressing control vector) was “stimulated”.

As to `CC(=O)[C@H]1CC[C@H]2[C@@H]3CCC4=CC(=O)CC[C@]4(C)[C@H]3CC[C@]12C` [progesterone], in assay [1], the “stimulation of PRE-mediated transcription” value was “failed to stimulate”.

With `C[C@]12CC[C@@H]3c4ccc(O)cc4C[C@@H](CCCCCCCCC[S+]([O-])CCCC(F)(F)C(F)(F)F)[C@H]3[C@@H]1CC[C@@H]2O` (stereo partly drawn) [ICI 182780], the “effect on interaction between ERα and MTA1s” value at ERα is given as “failed to block”.
